Assay results as given in US5756423A, “Method of controlling plants by inhibition of farnesyl pyrophosphate synthase” (Zeneca Limited, priority 1997, dated 1998).
Where two headings read alike, the source gives them in different places.

Tests used:
[1] = system: yellow nutsedge (Cyperus esculentus) (CYPES); experiment: post-emergent herbicidal test, yellow nutsedge; type: in vivo; conditions: Cyperus, post-emergence, read-out: CYPES percent control; for pest or weed control at 4000 g/ha: 4.0 kg/ha
Description: (§1) Seeds of several different weed species were planted in sandy loam soil containing only trace organic matter. Propagules were sown in individuals rows using one species per row across the width of an aluminum flat (19.5×9.5×6 cm). The grass weeds planted were green foxtail (Setaria viridis) ("SETVI"), wild oat (Avena fatua) ("AVEFA"), barnyard grass (Enchinochloa crusgalli) ("ECHCG"). Broadleaf weeds utilized were wild mustard (Brassica kaber), also known as Sinapis arvensis, ("SINAR"), velvetleaf (Abutilon theophrasti) ("ABUTH") and morningglory (Ipomoea spp.) ("IPOSS"). Additionally, yellow nutsedge (Cyperus esculentus) ("CYPES"), nutlets were sown. Seeding depths ranged from 1.0 to 1.5 cm and plant densities ranged from 3 to 25 plants per row depending on individual plant species.
(§2) The flats were placed into a greenhouse and watered overhead by sprinkling. The greenhouse environmental systems provided the plants with natural and artificial (via metal halide lamps) lighting to attain 14 hours of light per day. Day and night temperatures were maintained at 29° and 21° C. respectively. The plants were grown for 10 to 12 days (or to the appropriate growth stage) prior to compound application. Grasses were sprayed at a 3 to 4 leaf stage and broadleaves at a 1 to 2 leaf stage. Yellow nutsedge was 5 to 7 cm tall at application.
(§3) Solutions of the test compounds were prepared by weighing out 18.8 and 74.7 mg for 1 and 4 kg/ha applications respectively, of the test compound into a 60 ml wide-mouth bottle, then dissolving the compound in 14.0 ml of deionized water containing 0.5% v/v Tween 20' (polyoxyethylene sorbitan monolaurate emulsifier) as a surfactant. Additional solvents, not exceeding 2 ml (15% of spray volume), were used if needed to dissolve the compound.
(§4) The plants were sprayed inside an enclosed linear spray table with the nozzle set at 30.5 cm (12 inches) above the foliage.
(§5) Treated plants were then returned to a greenhouse and watered daily without wetting the foliage.
(§6) The degree of weed control was evaluated 17-21 days after application and recorded as percentage of control as compared to the growth of the same species in an untreated control flat of the same. Percent control is the total injury to the plants due to all factors including: inhibited emergence, stunting, malformation, chlorosis and other types of plant injury. The control ratings range from 0 to 100 percent, where 0% represents no effect with growth equal to the untreated control and where 100% represents complete kill.

[2] = system: wild mustard (Brassica kaber), also known as Sinapis arvensis (SINAR); experiment: post-emergent herbicidal test, wild mustard; type: in vivo; conditions: Brassica, post-emergence, read-out: SINAR percent control; for pest or weed control at 4000 g/ha: 4.0 kg/ha
Description: as §1, §2, §3, §4, §5, §6

[3] = system: barnyard grass (Enchinochloa crusgalli) (ECHCG); experiment: post-emergent herbicidal test, barnyard grass; type: in vivo; conditions: Echinochloa crus-galli, post-emergence, read-out: ECHCG percent control; for pest or weed control at 4000 g/ha: 4.0 kg/ha
Description: as §1, §2, §3, §4, §5, §6

[4] = system: morningglory (Ipomoea spp.) (IPOSS); experiment: post-emergent herbicidal test, morningglory; type: in vivo; conditions: Ipomoea, post-emergence, read-out: IPOSS percent control; for pest or weed control at 4000 g/ha: 4.0 kg/ha
Description: as §1, §2, §3, §4, §5, §6

[5] = system: velvetleaf (Abutilon theophrasti) (ABUTH); experiment: post-emergent herbicidal test, velvetleaf; type: in vivo; conditions: Abutilon theophrasti, post-emergence, read-out: ABUTH percent control; for pest or weed control at 4000 g/ha: 4.0 kg/ha
Description: as §1, §2, §3, §4, §5, §6

[6] = system: green foxtail (Setaria viridis) (SETVI); experiment: post-emergent herbicidal test, green foxtail; type: in vivo; conditions: Setaria viridis, post-emergence, read-out: SETVI percent control; for pest or weed control at 4000 g/ha: 4.0 kg/ha
Description: as §1, §2, §3, §4, §5, §6

[7] = system: farnesyl pyrophosphate synthase in daffodil chromoplasts; experiment: inhibition of farnesyl pyrophosphate synthase in daffodil chromoplasts (14C-isopentenyl pyrophosphate incorporation); type: biochemical, Narcissus pseudonarcissus; conditions: unit inferred, IC50 values in nM, read-out: IC50
Method: The IC50 value may be determined as follows. Daffodil chromoplasts are diluted to a volume of 500 microliters in a buffer containing 0.5M sucrose, 3 mM MgCl2, 1 mM ethylenediaminetetraacetic acid, 20 mM N-tris[hydroxymethyl]methyl-2-aminoethanesulfonic acid, […] N-[2-hydroxyethyl]-piperazine-N'-[2-ethanesulfonic acid], 5 mM L-cysteine, 10 mM sodium fluoride, and 0.1% bovine serum albumin at pH 7.7. The inhibitor to be tested may be dissolved in water other suitable solvent and then added to the reaction mixture. The assay is started by the addition of ^14 C-labeled isopentenyl pyrophosphate (52 Ci/mol) to give a final concentration in the assay of about 3 micromolar. The mixture is incubated at 30° C. with gentle agitation for a period of about 30 min. The reaction may be stopped by the addition of 0.5 mL of saturated NaCl and 2 mL of n-butanol saturated with water. After thorough mixing, the turbid suspensions are centrifuged briefly to separate the layers, and 1 mL of the bright yellow upper butanol layer is added to 10 mL of a suitable scintillation fluid which gives a single phase. The butanol soluble radioactivity is then measured in a scintillation counter.
In addition, the problem of variable quenching differences among different experiments can be essentially eliminated by determining the incorporation of radioactivity relative to controls. Each set of experiments requires two control tubes identical to the test samples except that they contain no inhibitor. One of these is quenched immediately (TO sample) and one is quenched at the end of the normal incubation period (T100 sample).
For each concentration of inhibitor examined the % residual activity is determined from the formula [formula]
Tightly closed daffodil flowers (Narcissus pseudonarcissus) were allowed to open at room temperature. […] Coronae were placed in twice their weight of isolation buffer consisting of 67 mM potassium phosphate, 0.74M sucrose, 5 mM MgCl2, and 0.2% polyvinyl-pyrrolidone at pH 7.6 and were disrupted by 30 seconds of homogenization at high speed in a Waring-type blender. The mixture was filtered through several layers of cheesecloth and 2 layers of 100 micron nylon mesh, and the resulting filtrate was centrifuged at 1000×g for 10 minutes. The pellet was discarded and supernatant was centrifuged at 22,000×g for 20 minutes. […] This solution was centrifuged at 22,000×g for 20 minutes to give orange pellets which were suspended in a buffer of 100 mM tris(hydroxymethyl)aminomethane at pH 7.6 containing 5mM MgCl2 and 2 mM dithiothreitol (1 ml per 10 coronae). This solution was frozen in liquid nitrogen and then stored at -80° C.
Thawed daffodil chromoplasts (100-150 microliters) were diluted to a final volume of 500 microliters in a buffer containing 0.5M sucrose, 3 mM MgCl2, 1 mM ethylenediaminetetraacetic acid, 10 mM N-[2-hydroxyethyl]piperazine-N^1 -[2-ethanesulfonic acid], 5 mM L-cysteine, 10 mM sodium fluoride, and 0.1% bovine serum albumin at pH 7.7. The inhibitor to be tested was dissolved in water or other suitable solvent and was added to the reaction mixture. The assay was started by the addition of ^14 C-labeled isopentenyl pyrophosphate (52 Ci/mol) to give a final concentration in the assay of about 3 micromolar. The mixture was incubated at 30° C. with gentle agitation for a period of about 30 minutes. The reaction was stopped by the addition of 0.5 mL of saturated NaCl and 2 mL of n-butanol saturated with water. After thorough mixing, the turbid suspensions were centrifuged briefly to separate the layers, and 1 mL of the bright yellow upper butanol layer was added to 10 mL of a suitable scintillation fluid which gave a single phase. The butanol soluble radioactivity was then measured in a scintillation counter. Each set of experiments required two control tubes identical to the test samples except that they contain no inhibitor.

[8] = system: wild oat (Avena fatua) (AVEFA); experiment: post-emergent herbicidal test, wild oat; type: in vivo; conditions: Avena fatua, post-emergence, read-out: AVEFA percent control; for pest or weed control at 4000 g/ha: 4.0 kg/ha
Description: as §1, §2, §3, §4, §5, §6

[9] = post-emergent, 17-21 days after application
[10] = post-emergent, 1.0 kg/ha (*), 17-21 days after application

| SMILES | IC50 ([7]; Table I) [nM] | IC50 ([7]; Table II) [nM] | pest or weed control at 1000 g/ha [1, 10] [%] | pest or weed control at 1000 g/ha [2, 10] [%] | pest or weed control at 1000 g/ha [3, 10] [%] | pest or weed control at 1000 g/ha [4, 10] [%] | pest or weed control at 1000 g/ha [5, 10] [%] | pest or weed control at 1000 g/ha [6, 10] [%] | pest or weed control at 1000 g/ha [8, 10] [%] | also measured |
| --- | --- | --- | --- | --- | --- | --- | --- | --- | --- | --- |
| O=P(O)(O)C(O)(C1CCCCN1)P(=O)(O)O (stereo not drawn) [Compound 9] | 209 | 209 | – | – | – | – | – | – | – | pest or weed control at 4000 g/ha [1, 9]: 15%; pest or weed control at 4000 g/ha [2, 9]: 100%; pest or weed control at 4000 g/ha [3, 9]: 30%; pest or weed control at 4000 g/ha [4, 9]: 30%; pest or weed control at 4000 g/ha [5, 9]: 30%; pest or weed control at 4000 g/ha [6, 9]: 100%; pest or weed control at 4000 g/ha [8, 9]: 60% |
| O=P(O)(O)C(CNCC(F)(F)F)P(=O)(O)O [Compound 39] | 380 | 380 | 0 | 0 | 0 | 0 | 0 | 5 | 20 | – |
| O=P(O)(O)C(CNCCc1ccccc1)P(=O)(O)O [Compound 28] | 1410 | 1410 | 10 | 50 | 5 | 5 | 5 | 30 | 60 | – |
| CCCN(CCC(=O)O)CC(P(=O)(O)O)P(=O)(O)O [Compound 54] | 479 | 479 | 0 | 10 | 0 | 5 | 0 | 10 | 0 | – |
| CC(C)CNCC(P(=O)(O)O)P(=O)(O)O [Compound 12] | 150 | 150 | – | – | – | – | – | – | – | pest or weed control at 4000 g/ha [1, 9]: 70%; pest or weed control at 4000 g/ha [2, 9]: 100%; pest or weed control at 4000 g/ha [3, 9]: 98%; pest or weed control at 4000 g/ha [4, 9]: 90%; pest or weed control at 4000 g/ha [5, 9]: 98%; pest or weed control at 4000 g/ha [6, 9]: 98%; pest or weed control at 4000 g/ha [8, 9]: 100% |
| CCCN(CC)CC(P(=O)(O)O)P(=O)(O)O [Compound 38] | 124 | 124 | 10 | 100 | 100 | 90 | 70 | 100 | 100 | – |
| C=C(C)CNCC(P(=O)(O)O)P(=O)(O)O [Compound 34] | 31 | 31 | 15 | 100 | 95 | 60 | 60 | 95 | 95 | – |
| O=P(O)(O)C(CN1CCCCCC1)P(=O)(O)O [Compound 29] | 360 | 360 | 0 | 85 | 60 | 15 | 0 | 60 | 60 | – |
| CC[C@H](C)NCC(P(=O)(O)O)P(=O)(O)O [Compound 56] | 32 | 32 | 60 | 100 | 100 | 98 | 95 | 100 | 100 | – |
| O=P(O)(O)C(CNC1Cc2ccccc2C1)P(=O)(O)O [Compound 46] | 440 | 440 | 10 | 5 | 15 | 0 | 5 | 20 | 50 | – |
| C=CCNCC(P(=O)(O)O)P(=O)(O)O [Compound 18] | 26 | 26 | – | – | – | – | – | – | – | pest or weed control at 1000 g/ha [1]: 50%; pest or weed control at 1000 g/ha [2]: 100%; pest or weed control at 1000 g/ha [3]: 98%; pest or weed control at 1000 g/ha [4]: 70%; pest or weed control at 1000 g/ha [5]: 30%; pest or weed control at 1000 g/ha [6]: 98%; pest or weed control at 1000 g/ha [8]: 100% |
